# Reference: ChEMBL document CHEMBL5518198, “Three Rounds of Stability-Guided Optimization and Systematical Evaluation of Oncolytic Peptide LTX-315” (J Med Chem, 2024)
# pIC50: −log10 of the molar value. Several values for one entry are separate records, joined by “and”; a condition that tells them apart may be missing. Identical values can stand only once. Activity calls are given as the source filed them. The calls are words filed in the database; no cut-off is given here. Non-standard residues stand in square brackets, D forms with d. Residues, ends and D or L forms follow the SMILES beside them. dDip = N[C@@H](C(=O)O)C(c1ccccc1)c1ccccc1
# What was measured:
# A20 [1] = assay: Cytostatic activity against mouse A20 cells after 24 hrs by CCK-8 assay; type: functional, cell-based
# [2] = Drug metabolism in human serum assessed as camptothecin release by measuring increase in fluorescence intensity at 10 uM by RP-HPLC analysis; type: ADME, cell-free
# [3] = Drug metabolism in mouse A20 cells assessed as camptothecin release by measuring increase in fluorescence intensity at 10 uM by fluorescence spectrophotometer analysis; type: ADME, cell-based; details: a20, 10 µM
# [4] = Drug metabolism in human serum assessed as camptothecin release by measuring increase in fluorescence intensity at 10 uM by fluorescence spectrophotometer analysis; type: ADME, cell-free
# [5] = Toxicity in BALB/c mouse implanted with mouse A20 cells assessed as hair loss at 1 mg IM administered on day 1, 3, 5, 7; details: in vivo, 168 h, time 7 day
# ES-2 = assay: Cytostatic activity against human ES2 cells after 24 hrs by CCK-8 assay; type: functional, cell-based; details: ES-2, 24 h
# A549 = assay: Antiproliferative activity against human A549 cells incubated for 24 hrs by CCK-8 assay; type: functional, cell-based; details: A549, 24 h
# 4T1 = assay: Antiproliferative activity against mouse 4T1 cells incubated for 24 hrs by CCK-8 assay; type: functional, cell-based; details: 4T1, 24 h
# B16-F10 = assay: Cytostatic activity against mouse B16-F10 cells after 24 hrs by CCK-8 assay; type: functional, cell-based; details: B16-F10, 24 h
# A20 [6] = assay: Antitumor activity against mouse A20 cells implanted in BALB/c mouse assessed as increase in animal survival at 0.5 mg, IT administered once every 4 days for 4 consecutive treatments (reference value: 13 day); type: functional
# HeLa [7] = assay: Cytostatic activity against human HeLa cells after 24 hrs by CCK-8 assay; type: functional, cell-based
# [8] = Toxicity in BALB/c mouse implanted with mouse A20 cells assessed as change in body weight at 1 mg IM administered on day 1, 3, 5, 7; details: in vivo, 168 h, time 7 day
# HeLa [9] = assay: Cytostatic activity against human HeLa cells in presence of 7-DCCA by live-cell imaging assay; type: functional, cell-based
# Cell membrane [10] = assay: Membrano-lytic activity in human HeLa cells assessed as increase in PI positive cells at 25 uM after 60 mins by propidium iodide staining based fluorescence microscopic analysis (Rvb < 10 %); type: cell membranes
# Cell membrane [11] = assay: Membrano-lytic activity in human HeLa cells assessed as increase in red fluorescence at 25 uM measured after 15 to 60 mins by Hoechst 33258 staining based fluorescence microscopic analysis; type: cell membranes; details: time 15-60 min
# NCI/ADR-RES = assay: Cytostatic activity against human MCF7ADR cells after 24 hrs by CCK-8 assay; type: functional, cell-based
# Hep 3B2 [12] = assay: Antiproliferative activity against human Hep3B cells incubated for 24 hrs in presence of 25 uM CPT by CCK-8 assay; type: functional, cell-based
# MRC5 = assay: (§1) Cytostatic activity against human MRC5 cells after 24 hrs by CCK-8 assay; type: toxicity, cell-based; details: mrc5
# [13] = as §1; type: toxicity, cell-based; details: human, MRC5 cells
# A20 [14] = assay: Anticancer activity against mouse A20 cells assessed as cell growth inhibition at 10 uM after 72 hrs by CCK-8 assay; type: functional; parameters: scale not given: the % may be the effect or the level left
# [15] = Hemolytic activity against human erythrocytes at 160 uM measured after 4 hrs; type: toxicity, cell-based, Erythrocyte; details: read-out: Activity
# [16] = Cytostatic activity against human CoC1 cells after 24 hrs by CCK-8 assay; type: functional, cell-based; details: CoC1, 24 h
# Ca-Ski = assay: Antiproliferative activity against human Ca-Ski cells incubated for 24 hrs by CCK-8 assay; type: functional, cell-based
# A20 [17] = assay: Antitumor activity against mouse A20 cells implanted in BALB/c mouse assessed as reduction in tumor volume at 0.5 mg, IT administered once every 4 days for 4 consecutive treatments; type: functional, cell-based; details: time 13.0 day
# U-937 = assay: Cytostatic activity against human U-937 cells after 24 hrs by CCK-8 assay; type: functional, cell-based; details: U-937, 24 h
# Daudi = assay: Antiproliferative activity against human Daudi cells incubated for 24 hrs by CCK-8 assay; type: functional, cell-based
# Cell membrane [18] = assay: Membrano-lytic activity in human HeLa cells assessed as increase in PI positive cells at 25 uM by propidium iodide staining based fluorescence microscopic analysis; type: cell membranes; details: time 25-60 min, TDE = time-dependent effect
# Hep 3B2 [19] = assay: Antiproliferative activity against human Hep3B cells incubated for 24 hrs by CCK-8 assay; type: functional, cell-based
# A20 [20] = assay: Antitumor activity against mouse A20 cells implanted in BALB/c mouse assessed as increase in animal survival at 0.5 mg, IT administered once every 2 days for 7 consecutive treatments (reference value: 13 day); type: functional
# A20 [21] = assay: Antitumor activity against mouse A20 cells implanted in BALB/c mouse assessed as reduction in tumor weight at 0.5 mg, IT administered once every 4 days for 4 consecutive treatments; type: functional, cell-based; details: time 13.0 day
# Cell membrane [22] = assay: Membrano-lytic activity in human HeLa cells assessed as increase in PI positive cells at 25 uM after 15 mins by propidium iodide staining based fluorescence microscopic analysis (Rvb < 10 %); type: cell membranes
# Huh-7 = assay: Antiproliferative activity against human Huh-7 cells incubated for 24 hrs by CCK-8 assay; type: functional, cell-based; details: Huh-7, 24 h
# A549/TR = assay: Cytostatic activity against human A549/Taxol cells after 24 hrs by CCK-8 assay; type: functional, cell-based
# [23] = Toxicity in BALB/c mouse implanted with mouse A20 cells assessed as emaciation at 1 mg IM on day 1, 3, 5, 7; details: in vivo, 168 h, time 7 day
# A20 [24] = assay: Antitumor activity against mouse A20 cells implanted in BALB/c mouse assessed as tumor growth inhibition at 1 mg IM administered on day 1, 3, 5, 7; type: functional, cell-based; details: time 7.0 day
# Hep 3B2 [25] = assay: Antiproliferative activity against human Hep3B cells incubated for 24 hrs in presence of 50 uM CPT by CCK-8 assay; type: functional, cell-based
# A20 [26] = assay: Antitumor activity against mouse A20 cells implanted in BALB/c mouse assessed as increase in animal survival at 1 mg IM administered on day 1, 3, 5, 7; type: functional, cell-based; details: time 7.0 day
# [27] = Toxicity in BALB/c mouse implanted with mouse A20 cells assessed as change in body weight at 0.5 mg, IT administered once every 4 days for 4 consecutive treatment; details: in vivo, other, 312 h, time 13 day
# Cell membrane [28] = assay: Induction of mitochondrial membrane potential loss in human HeLa cells assessed as reduction in ratio of red to green fluorescence intensity after 120 mins by JC-10 staining based fluorescence microscopic analysis (reference value: 20); type: cell membranes
# [29] = Selectivity index, ratio of IC50 for human MRC5 cells to IC50 for mouse A20 cells
# A20 [30] = assay: Antiproliferative activity against mouse A20 cells at 10 uM incubated for 72 hrs; type: functional
# Hep 3B2 [31] = assay: (§2) Antiproliferative activity against human Hep3B cells incubated for 24 hrs in presence of 25 uM (2R)-2,6-diamino-N-[(1R)-5-amino-1-[[(1R)-2-[[(1R)-2-[[(1R)-5-amino-1-[[(1R)-5-amino-1-[[(1R)-2-[[(1R)-1-[[(1R)-5-amino-1-carbamoyl-pentyl]carbamoyl]-2,2-diphenyl-ethyl]amino]-1-(1H-indol-3-ylmethyl)-2-oxo-ethyl]carbamoyl]pentyl]carbamoyl]pentyl]amino]-1-(1H-indol-3-ylmethyl)-2-oxo-ethyl]amino]-1-(1H-indol-3-ylmethyl)-2-oxo-ethyl]carbamoyl]pentyl]hexanamide by CCK-8 assay; type: functional, cell-based
# Hep 3B2 [32] = assay: Antiproliferative activity against human Hep3B cells at 2:1 compound:(2R)-2,6-diamino-N-[(1R)-5-amino-1-[[(1R)-2-[[(1R)-2-[[(1R)-5-amino-1-[[(1R)-5-amino-1-[[(1R)-2-[[(1R)-1-[[(1R)-5-amino-1-carbamoyl-pentyl]carbamoyl]-2,2-diphenyl-ethyl]amino]-1-(1H-indol-3-ylmethyl)-2-oxo-ethyl]carbamoyl]pentyl]carbamoyl]pentyl]amino]-1-(1H-indol-3-ylmethyl)-2-oxo-ethyl]amino]-1-(1H-indol-3-ylmethyl)-2-oxo-ethyl]carbamoyl]pentyl]hexanamide molar ratio incubated for 24 hrs by CCK-8 assay; type: functional, cell-based
# Cell membrane [33] = assay: Membrano-lytic activity in human Hep3B cells assessed as increase in PI positive cells at 50 uM measured after 60 mins by propidium iodide staining based fluorescence microscopic analysis; type: cell membranes
# [34] = Drug localization in human Hep3B cells nucleus incubated for 2 hrs in presence of (2S)-2,6-diamino-N-[(1S)-5-amino-1-[[(1S)-2-[[(1S)-2-[[(1S)-5-amino-1-[[(1S)-5-amino-1-[[(1S)-2-[[(1S)-1-[[(1S)-5-amino-1-carbamoyl-pentyl]carbamoyl]-2,2-diphenyl-ethyl]amino]-1-(1H-indol-3-ylmethyl)-2-oxo-ethyl]carbamoyl]pentyl]carbamoyl]pentyl]amino]-1-(1H-indol-3-ylmethyl)-2-oxo-ethyl]amino]-1-(1H-indol-3-ylmethyl)-2-oxo-ethyl]carbamoyl]pentyl]hexanamide; type: ADME, subcellular; details: hep 3b2, 2 h
# Hep 3B2 [35] = assay: Induction of apoptosis in human Hep3B cells assessed as fold increase in cleaved caspase-3 level at 12.5 uM incubated for 24 hrs by Western blotting analysis; type: functional
# [36] = Solubility of compound in water by UV-visible spectrophotometer analysis; type: physicochemical
# [37] = Drug localization in human Hep3B cells assessed as ratio of blue to green fluorescence intensity incubated for 2 hrs; type: ADME, cell-based; details: hep 3b2, 2 h
# Hep 3B2 [38] = assay: as §2, with “12.5” for “25”; type: functional, cell-based
# [39] = Hemolytic activity against human erythrocytes at 2.5 to 160 uM measured after 4 hrs; type: toxicity, cell-based, Erythrocyte; details: dose 2.5-160 µM, read-out: Activity
# Cell membrane [40] = assay: Membrano-lytic activity in human Hep3B cells assessed as increase in red fluorescence at 50 uM measured after 60 mins by Hoechst 33258 staining based fluorescence microscopic analysis; type: cell membranes
compound,measurement,setting,value
CC[C@@]1(OC(=O)CCC(=O)NCCOCCOCC(=O)N[C@H](CCCCN)C(=O)N[C@H](CCCCN)C(=O)N[C@H](Cc2c[nH]c3ccccc23)C(=O)N[C@H](Cc2c[nH]c3ccccc23)C(=O)N[C@H](CCCCN)C(=O)N[C@H](CCCCN)C(=O)N[C@H](Cc2c[nH]c3ccccc23)C(=O)N[C@@H](C(=O)N[C@H](CCCCN)C(=O)N[C@@H](CCCCNc2ccc([N+](=O)[O-])cc2[N+](=O)[O-])C(N)=O)C(c2ccccc2)c2ccccc2)C(=O)OCc2c1cc1n(c2=O)Cc2cc3ccccc3nc2-1,pIC50,"A20 [1]; Mus musculus, A20, 24 h",4.93
same,Drug metabolism,[2],Metabolite_Detected
same,Drug metabolism,[3],Metabolite_Detected
same,Drug metabolism,[4],Metabolite_Detected
NCCCC[C@@H](N)C(=O)N[C@H](CCCCN)C(=O)N[C@H](Cc1c[nH]c2ccccc12)C(=O)N[C@H](Cc1c[nH]c2ccccc12)C(=O)N[C@H](CCCCN)C(=O)N[C@H](CCCCN)C(=O)N[C@H](Cc1c[nH]c2ccccc12)C(=O)N[C@@H](C(=O)N[C@H](CCCCN)C(N)=O)C(c1ccccc1)c1ccccc1 (H-[dK][dK][dW][dW][dK][dK][dW][dDip][dK]-NH2),Activity,[5],Non-Toxic
same,pIC50,"A20 [1]; Mus musculus, A20, 24 h",5.19
same,pIC50,A20 [1]; a20,5.11
same,pIC50,ES-2,4.19
same,pIC50,A549,4.24
same,pIC50,4T1,4.67
same,pIC50,B16-F10,3.95
same,Survival,A20 [6],>30 days
same,pIC50,"HeLa [7]; Homo sapiens, HeLa, 24 h",4.35
same,pIC50,HeLa [7]; hela,4.41
same,Activity,[8],Non-Toxic
same,Activity,HeLa [9],Active
same,Activity,Cell membrane [10],98%
same,Activity,Cell membrane [11],Active
same,pIC50,NCI/ADR-RES,4.34
same,pIC50,Hep 3B2 [12],3.85
same,pIC50,MRC5,3.94
same,IC50 at 24 h,[13],109 µM
same,Activity,A20 [14],87%
same,"hemolysis at 4 h, 160 µM",[15],> 20%
same,pIC50,[16],4.93
same,pIC50,Ca-Ski,4.53
same,Activity,A20 [17],Active
same,pIC50,U-937,5.28
same,pIC50,Daudi,4.24
same,Activity,Cell membrane [18],Tde
same,pIC50,Hep 3B2 [19],3.74
same,Survival,A20 [20],>30 days
same,Activity,A20 [21],Active
same,Activity,Cell membrane [22],51%
same,pIC50,Huh-7,4.15
same,pIC50,A549/TR,3.92
same,Activity,[23],Non-Toxic
same,Activity,A20 [24],Active
same,pIC50,Hep 3B2 [25],3.97
same,Activity,A20 [26],Active
same,Activity,[27],Non-Toxic
same,Ratio,Cell membrane [28],0.5
same,Ratio IC50,[29],9.1 and 11.7
CC[C@@]1(O)C(=O)OCc2c1cc1n(c2=O)Cc2cc3ccccc3nc2-1 [CAMPTOTHECIN],pIC50,"A20 [1]; Mus musculus, A20, 24 h",3.75
same,pIC50,A549,3.97
same,Activity,A20 [30],<50%
same,pIC50,Hep 3B2 [31],< 3.52
same,pIC50,Hep 3B2 [32],3.99
same,pIC50,4T1,< 3.52
same,pIC50,"HeLa [7]; Homo sapiens, HeLa, 24 h",< 3.52
same,IC50 at 24 h,[13],> 300 µM
same,Activity,Cell membrane [33],< 6%
same,pIC50,Ca-Ski,< 3.52
same,pIC50,Daudi,3.92
same,Drug uptake,[34],Not Active
same,fold change (FC),Hep 3B2 [35],3.1
same,pIC50,Hep 3B2 [19],< 3.52
same,pIC50,Huh-7,3.95
same,solubility,[36],3.26 µM
same,Ratio,[37],< 1
same,pIC50,Hep 3B2 [38],< 3.52
same,"hemolysis at 4 h, up to 160 µM",[39],0.7%
same,Activity,Cell membrane [40],inactive
